Experimental data from the supplement of paper PMC10307832.

Key:
Assay in all cases: relative viability (nuclei count vs DMSO), 5 days (fraction); higher = more cells survive
[1] = compound: CC1=C(C(=NN1)C)CC2=C(C3=C(S2)N(C(=O)N(C3=O)C)CC(C)C)C(=O)N4C[C@@H](CO4)O + CS(=O)(=O)N1CCN(Cc2cc3nc(-c4cccc5[nH]ncc45)nc(N4CCOCC4)c3s2)CC1 [Pictilisib] (partner 1 µM)
Procedure, shortened: (§1)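 Lung cancer cell lines were seeded in 1536-well plates and dosed by pin tool the next day, with either a single drug or a fixed anchor-drug dose combined with five library-drug doses (not always all listed) spaced in √10 steps. Five days later, one step fixed the cells and stained their nuclei (final 0.05% Triton X-100, 1% formaldehyde, 1 ug/ml Hoechst), and nuclei were counted on 4× images. Relative viability is the nuclei count in treated wells divided by the count in vehicle wells, and each value is the median of duplicate plates.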

IDH-C35 + Phenformin = compound: Cc1ccccc1C(C(=O)NC1CCCCC1)N(C(=O)Cn1ccnc1C)c1cccc(F)c1 [IDH-C35] + N=C(N)NC(=N)NCCc1ccccc1 [Phenformin] (partner 250 µM)
Procedure, shortened: as §1

[2] = compound: CC1=C(C(=NN1)C)CC2=C(C3=C(S2)N(C(=O)N(C3=O)C)CC(C)C)C(=O)N4C[C@@H](CO4)O + NC(=O)Nc1cc(-c2cccc(F)c2)sc1C(=O)N[C@H]1CCCNC1 [AZD7762] (partner 0.2 µM)
Procedure, shortened: as §1

[3] = compound: CC1=C(C(=NN1)C)CC2=C(C3=C(S2)N(C(=O)N(C3=O)C)CC(C)C)C(=O)N4C[C@@H](CO4)O + CC(=O)Nc1cccc(-n2c(=O)n(C3CC3)c(=O)c3c(Nc4ccc(I)cc4F)n(C)c(=O)c(C)c32)c1 [Trametinib] (partner 0.02 µM)
Procedure, shortened: as §1

Row | Cell Line | relative viability ([1]; first compound 0.0025 µM) | relative viability ([1]; first compound 0.007906 µM) | relative viability ([1]; first compound 0.025 µM) | relative viability ([1]; first compound 0.07906 µM) | relative viability ([1]; first compound 0.25 µM) | relative viability (IDH-C35 + Phenformin; first compound 0.08 µM) | relative viability (IDH-C35 + Phenformin; first compound 0.253 µM) | relative viability (IDH-C35 + Phenformin; first compound 0.8 µM) | relative viability (IDH-C35 + Phenformin; first compound 2.53 µM) | relative viability (IDH-C35 + Phenformin; first compound 8 µM) | relative viability ([2]; first compound 0.0025 µM) | relative viability ([2]; first compound 0.007906 µM) | relative viability ([2]; first compound 0.025 µM) | relative viability ([2]; first compound 0.07906 µM) | relative viability ([2]; first compound 0.25 µM) | relative viability ([3]; first compound 0.0025 µM) | relative viability ([3]; first compound 0.007906 µM) | relative viability ([3]; first compound 0.025 µM) | relative viability ([3]; first compound 0.07906 µM) | relative viability ([3]; first compound 0.25 µM)
1 | NCI-H3122 | 0.644 | 0.618 | 0.642 | 0.606 | 0.587 | 0.391 | 0.372 | 0.4 | 0.376 | 0.359 | 1.03 | 1.09 | 1.02 | 0.973 | 1.02 | 0.226 | 0.305 | 0.254 | 0.187 | 0.229
2 | NCI-H2087 | 0.958 | 0.908 | 0.838 | 1.04 | 0.921 | 0.482 | 0.433 | 0.398 |  | 0.432 | 1.43 | 1.37 | 1.15 | 1.13 | 1.3 | 0.248 | 0.202 | 0.213 | 0.201 | 0.208
3 | LC-2-ad | 0.558 | 0.426 | 0.716 | 0.622 | 0.467 | 0.571 | 0.585 | 0.603 |  | 0.604 | 0.892 | 0.83 | 0.84 | 0.856 | 0.851 | 0.928 | 0.874 | 0.922 | 0.896 | 0.927
4 | NCI-H1915 | 0.965 | 0.927 | 0.897 | 0.878 | 0.975 | 0.364 | 0.37 | 0.382 | 0.369 | 0.341 | 0.742 | 0.727 | 0.658 | 0.641 | 0.762 | 0.295 | 0.307 | 0.288 | 0.302 | 0.32
5 | NCI-H1793 | 0.308 | 0.395 | 0.166 | 0.226 | 0.272 | 0.399 | 0.418 | 0.399 |  | 0.337 | 0.281 | 0.339 | 0.203 | 0.279 | 0.24 | 0.378 | 0.435 | 0.392 | 0.455 | 0.36
6 | RERF-LC-KJ | 0.623 | 0.527 | 0.557 | 0.518 | 0.587 | 0.415 | 0.443 | 0.419 | 0.456 | 0.403 | 1.01 | 1.16 | 0.888 | 1.1 | 1.01 | 0.898 | 0.94 | 0.838 | 0.883 | 0.909
7 | LXF-289 | 0.862 | 0.82 | 0.779 | 0.804 | 0.826 | 0.543 | 0.507 | 0.524 | 0.508 | 0.517 | 1.06 | 1.13 | 1.07 | 1.2 | 1.22 | 0.705 | 0.702 | 0.669 | 0.641 | 0.689
8 | PC-14 | 0.737 | 1.01 | 0.805 | 0.767 | 0.842 | 0.53 | 0.611 | 0.642 | 0.434 | 0.662 | 0.33 | 0.371 | 0.332 | 0.374 | 0.306 | 0.795 | 0.839 | 0.784 | 0.917 | 0.929
